Measured values as given in patent publication US6518291B1, “Inhibitors of IMPDH enzyme” (Vertex Pharmaceuticals, Incorporated, priority 1997, dated 2003).

molecular target: IMPDH human type II (Homo sapiens, UniProt P12268); assay: IMPDH Activity Inhibition Assay (spectrophotometric, NADH formation at 340 nm); type: biochemical; details: 37° C., tight-binding equations of Henderson
Method: We measured the inhibition constants of the compounds listed in Table II utilizing the following protocol:
IMP dehydrogenase activity was assayed following an adaptation of the method first reported by Magasanik. [Magasanik, B. Moyed, H. S. and Gehring L. B. (1957) J. Biol. Chem. 226, 339]. Enzyme activity was measured spectrophotometrically, by monitoring the increase in absorbance at 340 nm due to the formation of NADH (ε340 is 6220 M^−1 cm^−1). The reaction mixture contained 0.1 M Tris pH 8.0, 0.1 M KCl, 3 mM EDTA, 2 mM DTT, […] and enzyme (IMPDH human type II) at a concentration of 15 to 50 nM. This solution is incubated at 37° C. for 10 minutes. The reaction is started by adding NAD to a final concentration of […] and the initial rate is measured by following the linear increase in absorbance at 340 nm for 10 minutes. For reading in a standard spectrophotometer (path length 1 cm) the final volume in the cuvette is 1.0 ml. The assay has also been adapted to a 96 well microtiter plate format; in this case the concentrations of all the reagents remain the same and the final volume is decreased to 200 μl.
For the analysis of inhibitors, the compound in question is dissolved in DMSO to a final concentration of 20 mM and added to the initial assay mixture for preincubation with the enzyme at a final volume of 2-5% (v/v). The reaction is started by the addition of NAD, and the initial rates measured as above. Ki determinations are made by measuring the initial velocities in the presence of varying amounts of inhibitor and fitting the data using the tight-binding equations of Henderson (Henderson, P. J. F. (1972) Biochem. J. 127, 321].
Ki values are expressed in nM. Category “A” indicates 0.01 to 500 nm activity, category “B” indicates 501-5,000 nm activity, category “C” indicates 5,001 to 15,000 nm activity, category “D” indicates greater than 15,000 nm activity. The designation “ND” is used where a given compound was not tested.

SMILES	Ki [nM]
C=CCc1cccc2nc(Nc3ccc(-c4cnco4)c(OC)c3)oc12 [Compound 25]	0.01 to 500
COc1cc(Nc2nc3cc(C)ccc3o2)ccc1-c1cnco1 [Compound 22]	501 to 5000
COc1cc(Nc2nc3ccccc3o2)ccc1-c1cnco1 [Compound 8]	0.01 to 500
COc1ccccc1Nc1nc2ccccc2s1 [Compound 7]	> 15000
COc1cc(Nc2nc3ccccc3s2)ccc1-c1cnco1 [Compound 9]	0.01 to 500
COc1cccc(Nc2nc3ccccc3o2)c1 [Compound 24]	> 15000
COc1cc(Nc2nc3ccccc3s2)ccc1C#N [Compound 13]	5000 to 15000
COc1ccccc1Nc1nc2ccccc2o1 [Compound 6]	> 15000
COc1ccc(Nc2nc3ccccc3[nH]2)cc1 [Compound 3]	> 15000
COc1cc(Nc2nc3ccccc3[nH]2)ccc1-c1cnco1 [Compound 5]	501 to 5000
N#Cc1ccc(Nc2nc3ccccc3o2)cc1Cl [Compound 20]	> 15000
COc1cc(Nc2nc3ccc(C)cc3o2)ccc1-c1cnco1 [Compound 14]	0.01 to 500
COC(=O)c1ccc2nc(Nc3ccc(-c4cnco4)c(OC)c3)[nH]c2c1 [Compound 10]	0.01 to 500
COc1cc(Nc2nc3ccccc3[nH]2)ccc1C#N [Compound 15]	5000 to 15000
Cc1ccc(Nc2nc3ccccc3[nH]2)cc1 [Compound 4]	> 15000
COc1cc(Nc2nc3c(C)cccc3[nH]2)ccc1-c1cnco1 [Compound 16]	0.01 to 500
COc1cc(Nc2nc3ccccc3o2)ccc1C#N [Compound 21]	> 15000
c1ccc(Nc2nc3ccccc3[nH]2)cc1 [Compound 2]	> 15000
COc1ccc(Nc2nc3ccccc3o2)cc1OC [Compound 19]	> 15000
Clc1cc(Nc2nc3ccccc3o2)ccc1-c1cnco1 [Compound 23]	501 to 5000
c1ccc2oc(Nc3ccc(-c4cnco4)cc3)nc2c1 [Compound 18]	> 15000
COc1cc(Nc2nc3cc(C)c(C)cc3o2)ccc1-c1cnco1 [Compound 17]	0.01 to 500
COc1cc(Nc2nc3cc(C)ccc3o2)ccc1-c1cnco1 [Compound 12]	0.01 to 500
COc1cc(Nc2nc3ccc(CO)cc3[nH]2)ccc1-c1cnco1 [Compound 11]	501 to 5000
